Patent publication US20070232657A1, “NOVEL COMPOUNDS” (GLAXO GROUP LIMITED, priority 2006, published 2007)

Assays:
[1] = target: 5HT2b (Homo sapiens, UniProt P41595); assay: 5HT2b antagonist activity (no method given)
[2] = tested on: longitudinal muscle strips from the rat gastric forestomach; assay: Rat isolated forestomach assay (EFS-evoked contractions)
Procedure: Rat Isolated Forestomach Assay
Longitudinal muscle strips with mucosa partially removed were,obtained from the rat gastric forestomach, and suspended under an initial “load” of 1 g for isometric recording between two platinum ring electrodes, in 5 or 10 ml tissue baths containing Krebs solution bubbled with 5% CO2/95% O2 and maintained at 37° C. Following an equilibration period of 30 min, during which time the tissues were flushed every 15 minutes with fresh Krebs solution, tissues were stimulated with electrical field stimulation (EFS) [50V for 10 ml bath, 25V for 5 ml bath, at 2.5 Hz 0.5 ms pulse duration, for 10 s, every 1 min]. The tissues were left stimulating for at least 30 min. After obtaining consistent responses to EFS, the test compound was added to the bathing solution, each dose left in contact for at least 10 minutes. The % potentiation of contractions to EFS were measured as the area of 4 maximum EFS contractions after addition of compound relative to the area of 4 maximum EFS contractions before addition of the lowest concentration of compound. Data are expressed as means standard error of the mean; n-values are per animal used.

[3] = target: T1, human 5-HT4a receptor (Homo sapiens, UniProt Q13639); assay: Yeast functional 5-HT4a agonist assay; format: cell-based; design: expressed in transfected cells; host or cells: Saccharomyces cerevisiae strain MMY23 (expression cassette integrated at the ura3 locus); conditions: n=9
From the text: Yeast Functional 5-HT4a Agonist Assay
Yeast (Saccharomyces cerevisiae) cells expressing the human 5-HT4a receptor were generated by integration of an expression cassette into the ura3 chromosomal locus of yeast strain MMY23. This cassette consisted of DNA sequence encoding the human 5-HT4a receptor flanked by the yeast glyceraldehyde-3-phosphate dehydrogenase (GPD) promoter to the 5′ end of 5-HT4a and a yeast transcriptional terminator sequence to the 3′ end of 5-HT4a. MMY23 expresses a yeast/mammalian chimeric G-protein alpha subunit in which the C-terminal 5 amino acids of Gpa1 are replaced with the C-terminal 5 amino acids of human Gil (as described in Brown et al. (2000), Yeast 16:11-22). Cells were grown at 30° C. in liquid Synthetic Complete (SC) yeast media (Guthrie and Fink (1991), Methods in Enzymology, Vol.194) lacking uracil, tryptophan, adenine and leucine to late logarithmic phase (approximately 6 OD600/ml).
Agonists were prepared as 10 mM stocks in DMSO. EC50 values (the concentration required to produce 50% maximal response) were estimated using serial dilutions of between 3- and 5-fold (BiomekFX, Beckman) into DMSO. pEC50 corresponds to negative log10 of molar EC50. […] After incubation at 30° C. for 24 hours, fluorescence resulting from degradation of FDGlu to fluorescein due to exoglucanase, an endogenous yeast enzyme produced during agonist-stimulated cell growth, was determined (excitation wavelength: 485 nm; emission wavelength: 535 nm) using a Spectrofluor (Tecan) or similar microtitre plate reader. Fluorescence was plotted against compound concentration and iteratively curve fitted using a four parameter fit to generate a concentration effect value. […]
Where Max[compound X] and Min[compound X] are the fitted maximum and minimum respectively from the concentration effect curve for compound X, and Max[5-HT] and Min[5-HT] are the fitted maximum and minimum respectively from the concentration effect curve for 5-hydroxytryptamine. Equieffective molar ratio (EMR) values were calculated from the equation: EMR=EC50 [compound X]/EC50 [5-HT] […]

[4] = target: T1, human 5-HT4a receptor; assay: Mammalian functional 5-HT4a agonist assay (HEK-293-MSR-II cells, FLIPR); format: cell-based; design: expressed in transfected cells; host or cells: HEK-293-MSR-II cells transduced with BacMam viruses
Procedure: Mammalian Functional 5-HT4a Agonist Assay
Human embryonic kidney cells stably expressing the human macrophage scavenger receptor type II (HEK-293-MSR-II cells) were established in-house (Lysko PG et al., J Pharmacol Exp Ther. 289(3):1277-85). These cells were grown in humidified conditions in Minimum Essential Medium containing 10% fetal calf serum (FCS), 1× non-essential amino acids, 2 mM L-glutamine and 0.4 mg/ml geneticin at 37° C./5% CO2.
BacMam plasmid constructs for the production of viruses for expression in mammalian cells were generated as described (Condreay J P et al., Proc. Natl. Acad. Sci. 96:127-132, Ames R et al., Receptors Channels 10(3-4):117-24). […]
The next day 50 μl Fluo4am dye (at 6 μM in Tyrodes buffer containing 1.5 mM calcium chloride and 2.5mM probenicid) was added to each well and incubated at 37° C./5% CO2 for one hour. […] A Fluorimetric Imaging Plate Reader (FLIPR) was used to add the compounds to the cells (50 μl per well) and to determine peak fluorescence emitted per well over the whole assay period.

T1 sequence (Q13639 1-387 isoform Q13639-2): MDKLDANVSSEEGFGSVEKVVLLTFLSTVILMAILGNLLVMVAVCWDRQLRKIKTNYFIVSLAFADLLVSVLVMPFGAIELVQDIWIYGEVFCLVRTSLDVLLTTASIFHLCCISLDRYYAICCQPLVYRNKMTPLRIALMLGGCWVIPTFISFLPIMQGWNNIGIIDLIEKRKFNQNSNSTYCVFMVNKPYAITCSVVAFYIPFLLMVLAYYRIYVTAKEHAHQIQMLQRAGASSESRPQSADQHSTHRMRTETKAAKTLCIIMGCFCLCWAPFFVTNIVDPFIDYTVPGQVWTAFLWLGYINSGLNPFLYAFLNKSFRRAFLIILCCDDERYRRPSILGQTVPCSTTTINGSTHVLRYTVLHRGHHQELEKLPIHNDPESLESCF
Chain of 5HT2b (P41595 whole entry, species assumed): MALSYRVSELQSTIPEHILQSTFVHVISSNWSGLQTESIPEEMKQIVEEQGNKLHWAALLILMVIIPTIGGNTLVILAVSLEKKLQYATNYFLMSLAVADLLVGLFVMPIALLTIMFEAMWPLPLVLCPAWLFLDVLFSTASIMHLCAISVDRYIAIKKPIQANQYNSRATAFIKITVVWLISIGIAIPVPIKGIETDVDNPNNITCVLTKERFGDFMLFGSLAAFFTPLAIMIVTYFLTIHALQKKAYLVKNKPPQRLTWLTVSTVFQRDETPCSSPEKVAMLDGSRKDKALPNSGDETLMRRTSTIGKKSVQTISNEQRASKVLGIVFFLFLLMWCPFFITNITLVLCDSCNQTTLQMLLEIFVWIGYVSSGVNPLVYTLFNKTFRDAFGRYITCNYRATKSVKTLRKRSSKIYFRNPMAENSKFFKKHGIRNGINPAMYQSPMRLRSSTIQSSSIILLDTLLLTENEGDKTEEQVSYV

Row | 5HT2b antagonist activity [1] | EMR (equieffective molar ratio, EC50 compound/EC50 5-HT) ([3]; relative to 5-HT) | Emax ([3]; relative to 5-hydroxytryptamine, read-out: Mean efficacy (Emax relative to 5-HT)) [%] | EC50 ([3]; yeast cells expressing human 5-HT4a, read-out: Mean pEC50 (converted)) [nM] | EC50 ([4]; HEK-293-MSR-II cells, BacMam 5-HT4a + Gα16, n=12, read-out: mean pEC50 (converted)) [nM] | mean efficacy ([4]; relative to maximal effect of 5-HT, n=12) [%] | Compound | gastroprokinetic activity ([2]; in vitro, rat forestomach assay) | % potentiation of contractions to EFS, Mean ([2]; 1 nM E1, n=5) [%] | % potentiation of contractions to EFS, Mean ([2]; 10 nM E1, n=5) [%] | % potentiation of contractions to EFS, Mean ([2]; 100 nM E1, n=5) [%] | % potentiation of contractions to EFS, Mean ([2]; 1 μM E1, n=5) [%] | % potentiation of contractions to EFS, Mean ([2]; 10 μM E1, n=5) [%]
1 | exhibit 5HT2b antagonist activity |  |  |  |  |  | Nc1c(Br)cc(C(=O)NCC2CCN(CC3CCOCC3)CC2)c2c1CCCO2 [(A), 5-amino-6-bromo-N-{[1-(tetrahydro-2H-pyran-4-ylmethyl)-4-piperidinyl]methyl}-3,4-dihydro-2H-chromene-8-carboxamide] | exhibits gastroprokinetic activity |  |  |  |  | 
2 |  | 0.281 | 94 | 0.501 | 2.29 | 70 | Cl.Nc1c(Br)cc(C(=O)NCC2CCN(CC3CCOCC3)CC2)c2c1CCCO2 [Example E1, 5-Amino-6-bromo-N-{[1-(tetrahydro-2H-pyran-4-ylmethyl)-4-piperidinyl]methyl}-3,4-dihydro-2H-chromene-8-carboxamide hydrochloride] |  | 12.89 | 50.62 | 89.57 | 115.46 | 181.32
